The record followed here is US12391686B2, “Compounds and uses thereof” (Foghorn Therapeutics Inc., priority 2019, dated 2025).

Structures are written as SMILES.

For experiment [1], the target named is T1, BRD9 bromodomain (Flag-BRD9 P133-K239; Swiss Prot Q9H8M2) (Homo sapiens, UniProt Q9H8M2).
T1 construct: His-Flag-BRD9 (P133-K239); Swiss Prot Q9H8M2; His6 with TEV site (mgsshhhhhhenlyfq/) (N, cleaved yes); made in house
T1 sequence (Q9H8M2 133-239): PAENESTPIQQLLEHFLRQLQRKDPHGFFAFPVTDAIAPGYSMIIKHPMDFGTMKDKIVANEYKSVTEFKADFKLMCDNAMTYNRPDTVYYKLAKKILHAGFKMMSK
Nature of the experiment: BRD9 Bromodomain TR-FRET Competition Binding Assay. To be noted: competition with biotinylated BRD9 ligand; 90 minutes at room temperature. Here is the method: Procedure: His-Flag-BRD9 (P133-K239; Swiss Prot Q9H8M2; SEQ ID NO:1 mgsshhhhhhenlyfq/gdykddddkgslevlfqg/[…] […]) was cloned, expressed, purified, and then treated with TEV protease. Cleaved His tag was removed by purification. The binding of a biotinylated small molecule ligand of BRD9 was assessed via the LANCE® TR-FRET platform (PerkinElmer), and the compounds were assayed for inhibitory activity against this interaction.
Results: A mixture of biotinylated-ligand and SureLight™ Allophycocyanin-Streptavidin (APC-SA, PerkinElmer AD0201) in 50 mM HEPES (pH 7.4), 50 mM NaCl, 1 mM TCEP (pH 7), 0.01% (v/v) Tween-20, 0.01% (w/v) bovine serum albumin was added to a white 384-well PerkinElmer Proxiplate Plus plate. DMSO or 3-fold serially diluted compounds were then added to the Proxiplate followed by addition of Flag-BRD9. After a 10-minute incubation at room temperature, Eu-W1024 anti-FLAG (PerkinElmer, AD0273) was added. The final reaction mixture that contained 3.75 nM biotinylated ligand, 3 nM Flag-BRD9, 7.5 nM SureLight™ Allophycocyanin-Streptavidin, and 0.2 nM Eu-W1024 anti-FLAG was incubated at room temperature for 90 minutes.
The plates were then read on a PerkinElmer Envision plate reader to determine the ratio of emission at 665 nm over 615 nm. […]
(In general: In TR-FRET formats the signal depends on donor and acceptor labels being close together.)

In experiment [2] the target is T2, Nanoluciferase-BRD9 fusion protein (3×FLAG-NLuc-BRD9) in SYO-1 cells (Homo sapiens, UniProt Q9H8M2).
T2 construct: expressed in transfected cells; host or cells: SYO-1
T2 sequence (Q9H8M2 1-597): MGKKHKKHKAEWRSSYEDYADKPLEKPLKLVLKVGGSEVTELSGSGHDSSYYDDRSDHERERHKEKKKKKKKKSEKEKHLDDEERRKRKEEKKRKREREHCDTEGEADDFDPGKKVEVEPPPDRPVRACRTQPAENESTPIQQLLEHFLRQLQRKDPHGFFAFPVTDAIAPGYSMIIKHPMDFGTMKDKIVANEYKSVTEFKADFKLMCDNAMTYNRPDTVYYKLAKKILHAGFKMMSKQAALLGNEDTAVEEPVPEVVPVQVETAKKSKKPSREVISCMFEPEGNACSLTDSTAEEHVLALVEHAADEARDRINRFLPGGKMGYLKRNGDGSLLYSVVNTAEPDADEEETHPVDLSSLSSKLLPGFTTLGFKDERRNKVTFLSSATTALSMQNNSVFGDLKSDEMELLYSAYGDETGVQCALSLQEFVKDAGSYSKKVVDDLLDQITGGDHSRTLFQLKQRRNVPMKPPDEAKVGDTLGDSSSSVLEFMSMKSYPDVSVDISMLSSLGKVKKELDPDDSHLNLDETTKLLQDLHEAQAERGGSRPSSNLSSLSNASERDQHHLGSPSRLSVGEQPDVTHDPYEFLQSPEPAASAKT
The experiment in a line: SYO1 BRD9 NanoLuc Degradation Assay. To be noted: 6 hours; SYO-1 cells expressing 3×FLAG-NLuc-BRD9; top dose 1 μM; read-out: SYO1 BRD9-NanoLuc degradation IC50. The class given is cell-based. The method, boiled down: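 Stable 3×FLAG-NLuc-BRD9 SYO-1 line, 8000 cells/well, dosed day 1 with 10-point 3-fold dilutions (1 μM final top, duplicates) for 6 h. NanoLuc bioluminescence read with Nano-Glo; % inhibition relative to DMSO (high) and 1 μM reference BRD9 degrader (low) controls.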

As usually defined, the IC50 is the midpoint of a concentration-inhibition curve. Low readings indicate greater potency, high ones weaker potency. With `CNc1cc2c(=O)n(C)cc(-c3cc(OC)c(CN4CCC5(CC4)CN(C(=O)CCCCOc4cccc6c4C(=O)N(C4CCC(=O)NC4=O)C6=O)CCO5)c(OC)c3)c2cn1` (centres unmarked) [Compound D15, 4-([5-[9-([2,6-dimethoxy-4-[2-methyl-7-(methylamino)-1-oxo-2,6-naphthyridin-4-yl]phenyl]methyl)-1-oxa-4,9-diazaspiro[5.5]undecan-4-yl]-5-oxopentyl]oxy)-2-(2,6-dioxopiperidin-3-yl)isoindole-1,3-dione formic acid], the IC50 in experiment [1] is below 10 nM. Further, the DC50 in experiment [2] is below 10 nM.
Take `CNc1cc2c(=O)n(C)cc(-c3cc(OC)c(CN4CCC5(CC4)CN(C(=O)CCCOc4cccc6c4C(=O)N(C4CCC(=O)NC4=O)C6=O)CCO5)c(OC)c3)c2cn1` (centres unmarked) [Compound D16, 4-(4-(9-(2,6-dimethoxy-4-(2-methyl-7-(methylamino)-1-oxo-1,2-dihydro-2,6-naphthyridin-4-yl)benzyl)-1-oxa-4,9-diazaspiro[5.5]undecan-4-yl)-4-oxobutoxy)-2-(2,6-dioxopiperidin-3-yl)isoindoline-1,3-dione formic acid]: the IC50 in experiment [1] was below 10 nM. For the same compound, in experiment [2], the DC50 is below 10 nM.
Regarding `CNc1cc2c(=O)n(C)cc(-c3cc(OC)c(CN4CCN(C(=O)CCCOc5cccc6c5C(=O)N(C5CCC(=O)NC5=O)C6=O)CC4)c(OC)c3)c2cn1` (centres unmarked) [Compound D17, 4-(4-(4-(2,6-dimethoxy-4-(2-methyl-7-(methylamino)-1-oxo-1,2-dihydro-2,6-naphthyridin-4-yl)benzyl)piperazin-1-yl)-4-oxobutoxy)-2-(2,6-dioxopiperidin-3-yl)isoindoline-1,3-dione formic acid], in experiment [1], the IC50 is at least 10 nM. Besides, the DC50 in experiment [2] was below 10 nM.
In experiment [1], `COc1cc(-c2cn(C)c(=O)c3cnc(N(C)C)cc23)cc(OC)c1CN1CCC2(CC1)CN(C(=O)CCCOc1cccc3c1C(=O)N(C1CCC(=O)NC1=O)C3=O)CCO2` (centres unmarked) [Compound D18, 4-(4-(9-(4-(6-(dimethylamino)-2-methyl-1-oxo-1,2-dihydro-2,7-naphthyridin-4-yl)-2,6-dimethoxybenzyl)-1-oxa-4,9-diazaspiro[5.5]undecan-4-yl)-4-oxobutoxy)-2-(2,6-dioxopiperidin-3-yl)isoindoline-1,3-dione formic acid] had an IC50 below 10 nM. The DC50 in experiment [2] was below 10 nM.
As for `COc1cc(-c2cn(C)c(=O)c3cnc(N(C)C)cc23)cc(OC)c1CN1CCC2(CC1)CN(C(=O)CCCCOc1ccc3c(c1)C(=O)N(C1CCC(=O)NC1=O)C3=O)CCO2` (centres unmarked) [Compound D19, 5-((5-(9-(4-(6-(dimethylamino)-2-methyl-1-oxo-1,2-dihydro-2,7-naphthyridin-4-yl)-2,6-dimethoxybenzyl)-1-oxa-4,9-diazaspiro[5.5]undecan-4-yl)-5-oxopentyl)oxy)-2-(2,6-dioxopiperidin-3-yl)isoindoline-1,3-dione formic acid], the IC50 in experiment [1] was below 10 nM. The DC50 in experiment [2] is below 10 nM.
With `COc1cc(-c2cn(C)c(=O)c3cnc(N(C)C)cc23)cc(OC)c1CN1CCC(CCN2CCN(c3ccc4c(c3)C(=O)N(C3CCC(=O)NC3=O)C4=O)CC2)CC1` (centres unmarked) [Compound D20, 5-(4-(2-(1-(4-(6-(dimethylamino)-2-methyl-1-oxo-1,2-dihydro-2,7-naphthyridin-4-yl)-2,6-dimethoxybenzyl)piperidin-4-yl)ethyl)piperazin-1-yl)-2-(2,6-dioxopiperidin-3-yl)isoindoline-1,3-dione formic acid], the IC50 in experiment [1] was below 10 nM. Also, the DC50 in experiment [2] was below 10 nM.
`COc1cc(-c2cn(C)c(=O)c3cnc(N(C)C)cc23)cc(OC)c1CN(C)CCOCCN1CCN(c2ccc3c(c2)C(=O)N(C2CCC(=O)NC2=O)C3=O)CC1` (centres unmarked) [Compound D21, 5-[4-(2-[2-[([4-[6-(dimethylamino)-2-methyl-1-oxo-2,7-naphthyridin-4-yl]-2,6-dimethoxyphenyl]methyl)(methyl)amino]ethoxy]ethyl)piperazin-1-yl]-2-(2,6-dioxopiperidin-3-yl)isoindole-1,3-dione] registered an IC50 in experiment [1] below 10 nM. Moreover, the DC50 in experiment [2] is below 10 nM.
As to `COc1cc(-c2cn(C)c(=O)c3cnc(N(C)CCOCCOCCNc4ccc5c(c4)C(=O)N(C4CCC(=O)NC4=O)C5=O)cc23)cc(OC)c1CN(C)C` (centres unmarked) [Compound D22, 5-[10-(5-[4-[(dimethylamino)methyl]-3,5-dimethoxyphenyl]-7-methyl-8-oxo-2,7-naphthyridin-3-yl)-4,7-dioxa-1,10-diazaundecan-1-yl]-2-(2,6-dioxopiperidin-3-yl)isoindole-1,3-dione formic acid], the IC50 in experiment [1] is at least 10 nM. In addition, in experiment [2], the DC50 was at least 100 nM.
In experiment [1], `COc1cc(-c2cn(C)c(=O)c3cc(NCCOCCOCCNc4cccc5c4C(=O)N(C4CCC(=O)NC4=O)C5=O)ncc23)cc(OC)c1CN(C)C` (centres unmarked) [Compound D24, 4-[[2-(2-[2-[(8-[4-[(dimethylamino)methyl]-3,5-dimethoxyphenyl]-6-methyl-5-oxo-2,6-naphthyridin-3-yl)amino]ethoxy]ethoxy)ethyl]amino]-2-(2,6-dioxopiperidin-3-yl)isoindole-1,3-dione] came in with an IC50 of at least 10 nM. Further, in experiment [2], the DC50 is at least 10 nM.
As to `COc1cc(-c2cn(C)c(=O)c3cc(NCCCCCOc4cccc5c4C(=O)N(C4CCC(=O)NC4=O)C5=O)ncc23)c(OC)cc1CN(C)C` (centres unmarked) [Compound D25, 4-((5-((8-(4-((dimethylamino)methyl)-2,5-dimethoxyphenyl)-6-methyl-5-oxo-5,6-dihydro-2,6-naphthyridin-3-yl)amino)pentyl)oxy)-2-(2,6-dioxopiperidin-3-yl)isoindoline-1,3-dione], the IC50 in experiment [1] is at least 1000 nM. The DC50 in experiment [2] was at least 100 nM.
Take `COc1cc(-c2cn(C)c(=O)c3cc(NCC(=O)NCCCCCOc4cccc5c4C(=O)N(C4CCC(=O)NC4=O)C5=O)ncc23)cc(OC)c1CN(C)C` (centres unmarked) [Compound D26, 2-[(8-[4-[(dimethylamino)methyl]-3,5-dimethoxyphenyl]-6-methyl-5-oxo-2,6-naphthyridin-3-yl)amino]-N-(5-[[2-(2,6-dioxopiperidin-3-yl)-1,3-dioxoisoindol-4-yl]oxy]pentyl) acetamide]: the IC50 in experiment [1] was at least 10 nM. Further, the DC50 in experiment [2] was at least 10 nM.
Turning to `COc1cc(-c2cn(C)c(=O)c3cnc(N(C)C)cc23)cc(OC)c1CN1CCC2(CC1)CN(C(=O)CCCCOc1cccc3c1C(=O)N(C1CCC(=O)NC1=O)C3=O)CCO2` (centres unmarked) [Compound D27, 4-((5-(9-(4-(6-(dimethylamino)-2-methyl-1-oxo-1,2-dihydro-2,7-naphthyridin-4-yl)-2,6-dimethoxybenzyl)-1-oxa-4,9-diazaspiro[5.5]undecan-4-yl)-5-oxopentyl)oxy)-2-(2,6-dioxopiperidin-3-yl)isoindoline-1,3-dione formic acid], the IC50 in experiment [1] was below 10 nM. Further, the DC50 in experiment [2] is below 10 nM.
In turn, `COc1cc(-c2cn(C)c(=O)c3cnc(N(C)C)cc23)cc(OC)c1CN1CC(S(=O)(=O)NCCN2CCN(c3ccc4c(c3)C(=O)N(C3CCC(=O)NC3=O)C4=O)CC2)C1` (centres unmarked) [Compound D28, 1-([4-[6-(dimethylamino)-2-methyl-1-oxo-2,7-naphthyridin-4-yl]-2,6-dimethoxyphenyl]methyl)-N-(2-[4-[2-(2,6-dioxopiperidin-3-yl)-1,3-dioxoisoindol-5-yl]piperazin-1-yl]ethyl)azetidine-3-sulfonamide] had an IC50 in experiment [1] below 10 nM. For the same compound, the DC50 in experiment [2] was below 10 nM.
